Data published in US20240246960A1 (adMare Therapeutics Society, priority 2021, published 2024).

These compounds were tested against T1, DNA-PK phosphorylation at Serine 2056 (Homo sapiens, UniProt P78527) (assay: Cellular Assay for Inhibition of DNA-PK Phosphorylation at Serine 2056 (FaDu cells, neocarzinostatin, sandwich ELISA)). Conditions: Table 3.
T1 construct: host or cells: FaDu
Format: cell-based
Description: FaDu cells were purchased from ATCC and maintained in MEM alpha medium (Life Technologies, cat. no. 12561) supplemented with 10% fetal bovine serum, and 1% GlutaMAX at 37° C. supplemented with 5% CO2. 50,000 cells were seeded to each well of a 96-well cell culture plate in 50 μL of culture medium and incubated for 16-24 hours. Three-fold serially diluted compounds were prepared in DMSO. Culture media was used to prepare compound treatments to 0.3% DMSO (dimethyl sulphoxide) content. Compound treatments were added to the cells for 1 hour prior incubation, followed by the addition of neocarzinostatin in fresh culture medium to 1 μg/mL final concentration for an additional 2 hours incubation to induce DNA DSBs (double-strand breaks). DMSO controls were incubated with fresh culture medium alone for the additional two hours incubation. The cells were then lysed and frozen at −20° C. Cell lysates were thawed on wet ice and protein concentrations quantified by BCA Protein Assay (Thermo # 23225). Lysis buffer was used to normalize lysates by protein content and all lysates were then investigated by sandwich ELISA by means of DNA-PK-specific antibodies (Abcam ab44815: total DNA-PK; ab124918: phosphoserine-2056 DNA-PK) in sandwich ELISA format on the MSD S600MM platform (MesoScale Discovery). % inhibition was calculated for all data points: =1−(DATA_PT−AVERAGE(DMSO controls))/(AVERAGE(NCS controls)−AVERAGE(DMSO controls)). Logarithm of the molar concentration of compound was plotted against percent inhibition to calculate IC50 values, with curve fit settings for data fit to log(inhibitor) vs. normalized response—Variable slope using curve fit software (GraphPad Prism).

Row | Structure (SMILES) | IC50 [nM]
1 | CNC(=O)c1ccnc(N[C@H]2CC[C@@H](Oc3nc(N4CCOCC4)cc4ncc(NS(C)(=O)=O)cc34)CC2)n1 | < 100
2 | Cc1ccc(F)c(N[C@H]2CC[C@@H](Oc3nc(N4CCOCC4)cc4ncc(NS(C)(=O)=O)cc34)CC2)n1 [LFA1001, N-[5-[4-[(3-fluoro-6-methyl-2-pyridyl)amino]cyclohexoxy]-7-morpholino-1,6-naphthyridin-3-yl]methanesulfonamide] | 100 to 1000
3 | CS(=O)(=O)Nc1cnc2cc(N3CCOCC3)nc(O[C@H]3CC[C@@H](Nc4cccnc4)CC3)c2c1 [LFA1002, N-[7-morpholino-5-[4-(3-pyridylamino)cyclohexoxy]-1,6-naphthyridin-3-yl]methanesulfonamide] | < 100
4 | Cc1cccnc1N[C@H]1CC[C@@H](Oc2nc(N3CCOCC3)cc3ncc(NS(C)(=O)=O)cc23)CC1 [LFA1003, N-[5-[4-[(3-methyl-2-pyridyl)amino]cyclohexoxy]-7-morpholino-1,6-naphthyridin-3-yl]methanesulfonamide] | < 100
5 | CS(=O)(=O)Nc1cnc2cc(N3CCOCC3)nc(O[C@H]3CC[C@@H](Nc4ccc(F)cn4)CC3)c2c1 [LFA1004, N-[5-[4-[(5-fluoro-2-pyridyl)amino]cyclohexoxy]-7-morpholino-1,6-naphthyridin-3-yl]methanesulfonamide] | < 100
6 | COc1cccnc1N[C@H]1CC[C@@H](Oc2nc(N3CCOCC3)cc3ncc(NS(C)(=O)=O)cc23)CC1 [LFA1005, N-[5-[4-[(3-methoxy-2-pyridyl)amino]cyclohexoxy]-7-morpholino-1,6-naphthyridin-3-yl]methanesulfonamide] | < 100
7 | Cc1cccc(N[C@H]2CC[C@@H](Oc3nc(N4CCOCC4)cc4ncc(NS(C)(=O)=O)cc34)CC2)n1 [LFA1006, N-[5-[4-[(6-methyl-2-pyridyl)amino]cyclohexoxy]-7-morpholino-1,6-naphthyridin-3-yl]methanesulfonamide] | < 100
8 | CS(=O)(=O)Nc1cnc2cc(N3CCOCC3)nc(O[C@H]3CC[C@@H](Nc4ncccc4F)CC3)c2c1 [LFA1007, N-[5-[4-[(3-fluoro-2-pyridyl)amino]cyclohexoxy]-7-morpholino-1,6-naphthyridin-3-yl]methanesulfonamide] | < 100
9 | CS(=O)(=O)Nc1cnc2cc(N3CCOCC3)nc(O[C@H]3CC[C@@H](Nc4ncccc4C#N)CC3)c2c1 [LFA1008, N-[5-[4-[(3-cyano-2-pyridyl)amino]cyclohexoxy]-7-morpholino-1,6-naphthyridin-3-yl]methanesulfonamide] | < 100
10 | Cc1cnc(N[C@H]2CC[C@@H](Oc3nc(N4CCOCC4)cc4ncc(NS(C)(=O)=O)cc34)CC2)c(C)c1 [LFA1009, N-[5-[4-[(3,5-dimethyl-2-pyridyl)amino]cyclohexoxy]-7-morpholino-1,6-naphthyridin-3-yl]methanesulfonamide] | < 100
11 | COc1ccc(C)nc1N[C@H]1CC[C@@H](Oc2nc(N3CCOCC3)cc3ncc(NS(C)(=O)=O)cc23)CC1 [LFA1010, N-[5-[4-[(3-methoxy-6-methyl-2-pyridyl)amino]cyclohexoxy]-7-morpholino-1,6-naphthyridin-3-yl]methanesulfonamide] | 100 to 1000
12 | Cc1cnc(N[C@H]2CC[C@@H](Oc3nc(N4CCOCC4)cc4ncc(NS(C)(=O)=O)cc34)CC2)c(F)c1 [LFA1011, N-[5-[4-[(3-fluoro-5-methyl-2-pyridyl)amino]cyclohexoxy]-7-morpholino-1,6-naphthyridin-3-yl]methanesulfonamide] | < 100
13 | Cc1ccncc1N[C@H]1CC[C@@H](Oc2nc(N3CCOCC3)cc3ncc(NS(C)(=O)=O)cc23)CC1 [LFA1012] | < 100
14 | COc1cncc(N[C@H]2CC[C@@H](Oc3nc(N4CCOCC4)cc4ncc(NS(C)(=O)=O)cc34)CC2)c1 [LFA1013, N-[5-[4-[(5-methoxy-3-pyridyl)amino]cyclohexoxy]-7-morpholino-1,6-naphthyridin-3-yl]methanesulfonamide] | 100 to 1000
15 | CS(=O)(=O)Nc1cnc2cc(N3CCOCC3)nc(O[C@H]3CC[C@@H](Nc4ccncc4Br)CC3)c2c1 [LFA1014, N-[5-[4-[(3-bromo-4-pyridyl)amino]cyclohexoxy]-7-morpholino-1,6-naphthyridin-3-yl]methanesulfonamide] | < 100
16 | Cc1ncccc1N[C@H]1CC[C@@H](Oc2nc(N3CCOCC3)cc3ncc(NS(C)(=O)=O)cc23)CC1 [LFA1015, N-[5-[4-[(2-methyl-3-pyridyl)amino]cyclohexoxy]-7-morpholino-1,6-naphthyridin-3-yl]methanesulfonamide] | < 100

Row | Structure (SMILES) | IC50 [nM]
17 | COc1ccncc1N[C@H]1CC[C@@H](Oc2nc(N3CCOCC3)cc3ncc(NS(C)(=O)=O)cc23)CC1 [LFA1016, N-[5-[4-[(4-methoxy-3-pyridyl)amino]cyclohexoxy]-7-morpholino-1,6-naphthyridin-3-yl]methanesulfonamide] | < 100
18 | Cc1ccc(N[C@H]2CC[C@@H](Oc3nc(N4CCOCC4)cc4ncc(NS(C)(=O)=O)cc34)CC2)cn1 [LFA1017, N-[5-[4-[(6-methyl-3-pyridyl)amino]cyclohexoxy]-7-morpholino-1,6-naphthyridin-3-yl]methanesulfonamide] | 100 to 1000
19 | Cc1nc(N[C@H]2CC[C@@H](Oc3nc(N4CCOCC4)cc4ncc(NS(C)(=O)=O)cc34)CC2)ccc1F [LFA1018, N-[5-[4-[(5-fluoro-6-methyl-2-pyridyl)amino]cyclohexoxy]-7-morpholino-1,6-naphthyridin-3-yl]methanesulfonamide] | < 100
20 | Cc1ccc(N[C@H]2CC[C@@H](Oc3nc(N4CCOCC4)cc4ncc(NS(C)(=O)=O)cc34)CC2)nc1 [LFA1019, N-[5-[4-[(5-methyl-2-pyridyl)amino]cyclohexoxy]-7-morpholino-1,6-naphthyridin-3-yl]methanesulfonamide] | < 100
21 | CS(=O)(=O)Nc1cnc2cc(N3CCOCC3)nc(O[C@H]3CC[C@@H](Nc4cccnn4)CC3)c2c1 [LFA1020, N-[7-morpholino-5-[4-(pyridazin-3-ylamino)cyclohexoxy]-1,6-naphthyridin-3-yl]methanesulfonamide] | < 100
22 | CS(=O)(=O)Nc1cnc2cc(N3CCOCC3)nc(O[C@H]3CC[C@@H](Nc4ccc(C(F)(F)F)cn4)CC3)c2c1 [LFA1021, N-[7-morpholino-5-[4-[[5-(trifluoromethyl)-2-pyridyl]amino]cyclohexoxy]-1,6-naphthyridin-3-yl]methanesulfonamide] | < 100
23 | CS(=O)(=O)Nc1cnc2cc(N3CCOCC3)nc(O[C@H]3CC[C@@H](Nc4ccc(C#N)cn4)CC3)c2c1 [LFA1022, N-[5-[4-[(5-cyano-2-pyridyl)amino]cyclohexoxy]-7-morpholino-1,6-naphthyridin-3-yl]methanesulfonamide] | < 100
24 | CS(=O)(=O)Nc1cnc2cc(N3CCOCC3)nc(O[C@H]3CC[C@@H](Nc4ccc(C#N)nn4)CC3)c2c1 [LFA1023, N-[5-[4-[(6-cyanopyridazin-3-yl)amino]cyclohexoxy]-7-morpholino-1,6-naphthyridin-3-yl]methanesulfonamide] | < 100
25 | CS(=O)(=O)Nc1cnc2cc(N3CCOCC3)nc(O[C@H]3CC[C@@H](Nc4ncc(F)cc4F)CC3)c2c1 [LFA1024, N-[5-[4-[(3,5-difluoro-2-pyridyl)amino]cyclohexoxy]-7-morpholino-1,6-naphthyridin-3-yl]methanesulfonamide] | < 100
26 | COc1cc(C#N)cnc1N[C@H]1CC[C@@H](Oc2nc(N3CCOCC3)cc3ncc(NS(C)(=O)=O)cc23)CC1 [LFA1025, N-[5-[4-[(5-cyano-3-methoxy-2-pyridyl)amino]cyclohexoxy]-7-morpholino-1,6-naphthyridin-3-yl]methanesulfonamide] | < 100
27 | N#Cc1cnc(N[C@H]2CC[C@@H](Oc3nc(N4CCOCC4)cc4ncc(O)cc34)CC2)cn1 [LFA1026, 5-[[4-[(3-hydroxy-7-morpholino-1,6-naphthyridin-5-yl)oxy]cyclohexyl]amino]pyrazine-2-carbonitrile] | 100 to 1000
28 | COc1cnc(N[C@H]2CC[C@@H](Oc3nc(N4CCOCC4)cc4ncc(NS(C)(=O)=O)cc34)CC2)cn1 [LFA1028, N-[5-[4-[(5-methoxypyrazin-2-yl)amino]cyclohexoxy]-7-morpholino-1,6-naphthyridin-3-yl]methanesulfonamide] | < 100
29 | CS(=O)(=O)Nc1cnc2cc(N3CCOCC3)nc(O[C@H]3CC[C@@H](Nc4nccnc4C(F)(F)F)CC3)c2c1 [LFA1029, N-[7-morpholino-5-[4-[[3-(trifluoromethyl)pyrazin-2-yl]amino]cyclohexoxy]-1,6-naphthyridin-3-yl]methanesulfonamide] | < 100
30 | CS(=O)(=O)Nc1cnc2cc(N3CCOCC3)nc(O[C@H]3CC[C@@H](Nc4cncc(C(F)(F)F)n4)CC3)c2c1 [LFA1030, N-[7-morpholino-5-[4-[[6-(trifluoromethyl)pyrazin-2-yl]amino]cyclohexoxy]-1,6-naphthyridin-3-yl]methanesulfonamide] | 100 to 1000
31 | CS(=O)(=O)Nc1cnc2cc(N3CCOCC3)nc(O[C@H]3CC[C@@H](Nc4cncc(C#N)n4)CC3)c2c1 [LFA1031, N-[5-[4-[(6-cyanopyrazin-2-yl)amino]cyclohexoxy]-7-morpholino-1,6-naphthyridin-3-yl]methanesulfonamide] | < 100
